Measurements from patent publication US11267826B2, “Penicillin-binding protein inhibitors” (priority 2017, dated 2022).

Columns and labels:
E. coli PBP2 = target: T1, E. coli PBP2 (Escherichia coli, UniProt P0AD65); test: Bocillin FL competition binding assay, PBP2; set-up: species or system Escherichia coli K12; settings: 15 min pre-incubation
T1 construct: 100 μg's of total membrane protein extracts containing PBPs; endogenous in cells; host or cells: Escherichia coli K12, membrane protein fraction
T1 sequence (P0AD65 whole entry): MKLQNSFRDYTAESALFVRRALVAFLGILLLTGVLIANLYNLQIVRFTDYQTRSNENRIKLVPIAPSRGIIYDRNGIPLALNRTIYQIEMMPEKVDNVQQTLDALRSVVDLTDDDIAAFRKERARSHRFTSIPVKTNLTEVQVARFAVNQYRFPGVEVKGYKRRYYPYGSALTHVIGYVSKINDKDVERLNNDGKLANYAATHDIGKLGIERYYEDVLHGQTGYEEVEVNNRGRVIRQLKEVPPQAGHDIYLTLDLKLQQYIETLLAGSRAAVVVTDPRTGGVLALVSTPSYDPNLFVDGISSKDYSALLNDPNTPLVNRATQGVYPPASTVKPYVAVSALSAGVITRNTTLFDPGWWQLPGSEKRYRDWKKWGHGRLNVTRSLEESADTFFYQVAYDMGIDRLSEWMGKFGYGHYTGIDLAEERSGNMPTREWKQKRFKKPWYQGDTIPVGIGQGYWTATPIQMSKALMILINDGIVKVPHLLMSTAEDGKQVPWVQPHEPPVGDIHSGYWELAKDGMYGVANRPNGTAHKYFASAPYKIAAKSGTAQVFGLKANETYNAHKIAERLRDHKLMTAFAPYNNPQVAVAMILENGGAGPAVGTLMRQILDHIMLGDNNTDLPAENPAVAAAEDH
Outline: (§1)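 E. coli K12 membrane extracts (100 µg protein) pre-incubated 15 min with compound (0.005–2,480 µg/mL) in pH 7 phosphate/350 mM NaCl, then labelled with Bocillin FL 30 min at 35°C; SDS-PAGE fluorescence (ex 450/em 520 nm), μg/mL reported. PBP1a/1b unresolved, reported combined.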

[1] = system: E. coli DH5a harboring CTX-M15; test: Broth microdilution MIC, engineered E. coli expressing CTX-M15; type: cell-based; settings: Escherichia coli, read-out: MIC, β-lactamase CTXM
Method: (§2) To determine the ability of test compounds to potentiate the inhibition of the growth of bacterial strains, classic cell based broth microdilution MIC assays were employed. MIC assays are performed according to CLSI methods except where otherwise noted (CLSI, 2011 and CLSI, 2009). The reference strain S. aureus ATCC 29213 and the hyper-permeable E. coli 901C were used to determine the ability of the PBP compounds to inhibit bacterial growth. Briefly, cryo-preserved bacterial cultures of clinical strains are streaked for isolation on appropriate agar medium, in this case Mueller Hinton II agar. Following incubation to allow formation of colonies these plates are sealed with parafilm and stored refrigerated for up to two weeks. For preparation of assay inocula and to ensure low variability, at least 5 colonies are picked from the agar plates with an inoculating loop and aseptically transferred to a culture tube containing 3 mL of Mueller-Hinton Broth (supplemented with divalent cations to required levels based on Manufacturers' certification). The broth culture is grown for 3-5 hours at 37° C. with shaking at 200 rpm. Meanwhile, 2-fold serial dilutions of test compounds are conducted in a 96 well plate with a final volume of 75 μL per well at 2-fold the final desired concentration. After the dilution plates are set up the growing cultures are then diluted in a cuvette containing MH II broth and the optical density is measured at 600 nm. Inocula are diluted such that 75 μL of this culture in Mueller-Hinton Broth results in a starting bacterial concentration of 5×10^5 CFU/mL when added to the dilution plates. The plates are incubated 16-20 hours at 37° C. The MIC is read visually as the lowest concentration well with no bacterial growth.
(§3) To determine if test compounds were affected by various known β-lactamases, the inhibition of the growth of engineered strains of Escherichia coli harboring select single β-lactamases were tested. […]

[2] = system: E. coli DH5a harboring KPC-2; test: microbe, parasite or virus in culture; type: cell-based; settings: Escherichia coli, read-out: MIC, β-lactamase KPC
Method: To determine the ability of test compounds to potentiate the inhibition of the growth of bacterial strains, classic cell based broth microdilution MIC assays were employed. MIC assays are performed according to CLSI methods except where otherwise noted (CLSI, 2011 and CLSI, 2009). The reference strain S. aureus ATCC 29213 and the hyper-permeable E. coli 901C were used to determine the ability of the PBP compounds to inhibit bacterial growth. Briefly, cryo-preserved bacterial cultures of clinical strains are streaked for isolation on appropriate agar medium, in this case Mueller Hinton II agar. Following incubation to allow formation of colonies these plates are sealed with parafilm and stored refrigerated for up to two weeks. For preparation of assay inocula and to ensure low variability, at least 5 colonies are picked from the agar plates with an inoculating loop and aseptically transferred to a culture tube containing 3 mL of Mueller-Hinton Broth (supplemented with divalent cations to required levels based on Manufacturers' certification). The broth culture is grown for 3-5 hours at 37° C. with shaking at 200 rpm. […] After the dilution plates are set up the growing cultures are then diluted in a cuvette containing MH II broth and the optical density is measured at 600 nm. […] The MIC is read visually as the lowest concentration well with no bacterial growth. […]

E. coli K12 PBP1a/b = test: Bocillin FL competition binding assay, PBP1a/1b combined; set-up: species or system Escherichia coli K12; settings: 15 min pre-incubation, PBP 1a/1b combined
Outline: as §1

[3] = system: E. coli DH5a harboring OXA-48; test: Broth microdilution MIC, engineered E. coli expressing OXA-48; type: cell-based; settings: Escherichia coli, read-out: MIC, β-lactamase OXA
Method: as §2, §3

[4] = system: E. coli DH5a with pLBII plasmid with no β-lactamase gene; test: Broth microdilution MIC, engineered E. coli control strain (pLBII plasmid, no β-lactamase gene); type: cell-based; settings: Escherichia coli, read-out: MIC, β-lactamase None
Method: as §2, §3

[5] = system: E. coli DH5a harboring SHV-5; test: Broth microdilution MIC, engineered E. coli expressing SHV-5; type: cell-based; settings: Escherichia coli, read-out: MIC, β-lactamase SHV
Method: as §2, §3

[6] = system: E. coli DH5a harboring NDM-1; test: Broth microdilution MIC, engineered E. coli expressing NDM-1; type: cell-based; settings: Escherichia coli, read-out: MIC, β-lactamase NDM
Method: as §2, §3

[7] = system: E. coli DH5a harboring TEM-24; test: Broth microdilution MIC, engineered E. coli expressing TEM-24; type: cell-based; settings: Escherichia coli, read-out: MIC, β-lactamase TEM
Method: as §2, §3

[8] = system: engineered strains of Escherichia coli harboring select single β-lactamases; test: MIC across the panel of engineered E. coli strains harboring select single β-lactamases; type: cell-based; settings: strains expressing β-lactamases compared with control strain, result in words
Method: To determine if test compounds were affected by various known β-lactamases, the inhibition of the growth of engineered strains of Escherichia coli harboring select single β-lactamases were tested. These strains were constructed by cloning the gene encoding the particular β-lactamase into the NdeI and BamHI restriction endonuclease sites of plasmid pLBII, placing the gene(s) under the control of the Lac promoter.

Nc1nc(/C(=N/O)C(=O)N[C@H]2Cc3cccc(C(=O)O)c3OB2O)cs1 [Example 6, (R,Z)-3-(2-(2-aminothiazol-4-yl)-2-(hydroxyimino)acetamido)-2-hydroxy-3,4-dihydro-2H-benzo[e][1,2]oxaborinine-8-carboxylic Acid]
E. coli PBP2 Potency (E. coli PBP2): B (B represents a potency between 64 and 1000 μg/mL inclusive)
MIC [1]: 16 µg/mL
MIC [2]: 16 µg/mL
E. coli K12 PBP1a/b Potency (E. coli K12 PBP1a/b): C (C represents a potency of <64 μg/mL)
MIC [3]: 16 µg/mL
MIC [4]: 16 µg/mL
MIC [5]: 16 µg/mL
MIC [6]: 16 µg/mL
MIC [7]: 16 µg/mL
Effect of expressed β-lactamase on MIC [8]: the same MIC values in strains regardless of the β-lactamase expressed
